Experimental data from patent publication US10962529B1 (priority 2020, dated 2021).
“Also recorded” adds a separate entry of the source.

Assays:
Assay type in all cases: biochemical
[1] = system: SARS-COV-2 total protease; assay: High throughput FRET screening of fluorogenic dipeptide substrates; details: for Relative fluorescence (change in the fluorescence signal in the presence of SARS-COV-2 protease): relative to FITC-Ahx-H-d-K(Dabcyl) = 100, ex 485 nm, em 535 nm; for Relative fluorescence (change in the fluorescence signal in the presence of SARS-COV-2 protease) / Fluorescence intensity increase relative to H-d peptide: 37° C.; for Fluorescence intensity increase relative to H-d peptide: H-d set as relative scale of 100%
[2] = system: SARS-COV-2 live virus (protease); assay: Real-time fluorescence kinetics and detection limit of FRET substrate with live virus
[3] = system: MERS-COV protease (viral particles)

Substance | Relative fluorescence (change in the fluorescence signal in the presence of SARS-COV-2 protease) [1] | further results
FITC-Ahx-E-d-K(Dabcyl) | 58 | 
FITC-Ahx-F-R-K(Dabcyl) | 82 | Fluorescence intensity increase relative to H-d peptide [1]: 82%
FITC-Ahx-H-d-K(Dabcyl) | 100 | Fluorescence intensity increase relative to H-d peptide [1]: 100%; Change in the fluorescence signal of the substrate [2]: no significant change; Fraction of the reaction completed within 30 minutes [2]: more than 50%; Time after which the fluorescence curve plateaus [2]: 1.5 h; Increase in the fluorescence intensity in the presence of MERS-COV virus [3]: less than 20%
FITC-Ahx-K-K-K(Dabcyl) | 62 | 
FITC-Ahx-K-d-K(Dabcyl) | 47 | 
FITC-Ahx-P-P-K(Dabcyl) | 55 | 
FITC-Ahx-R-d-K(Dabcyl) | 67 | 
FITC-Ahx-R-h-K(Dabcyl) [reference compound] |  | Increase in the fluorescence intensity in the presence of SARS-COV-2 protease ([1]; incubated at 37° C., after 3 hours): insignificant increase; also recorded: very minimum fluorescence change
